Test results taken from ChEMBL document CHEMBL3832761, “MMV Pathogen Box Bioactivity Data” (2017).

Tests used:
Plasmodium falciparum [1] = assay: Antimalarial activity: Gametocytes Plasmodium falciparum NF54 Gametocytes Stage V: inhibition at 10 uM (%); type: functional
[2] = HL60 CC50 (uM) Cytotoxicity; type: functional; details: HL-60
Plasmodium falciparum [3] = assay: Antimalarial activity: Asexual Blood Stage Plasmodium falciparum 3D7 IC50 (uM); type: functional, organism-based
HepG2 [4] = assay: Cytotoxicity data HepG2 CC20 (uM); type: functional
HepG2 [5] = assay: HepG2 inhibition at 10 uM (%) Cytotoxicity; type: functional; details: Homo sapiens
Plasmodium berghei [6] = assay: Antimalarial activity: Liver Stage Plasmodium berghei sporozoite Luciferase assay: inhibition at 10 uM (%); type: functional
Plasmodium falciparum [7] = assay: Antimalarial activity: Asexual Blood Stage Plasmodium falciparum Dd2 IC50 (uM); type: functional, organism-based
Plasmodium falciparum [8] = assay: Antimalarial activity: Asexual Blood Stage Plasmodium falciparum W2 IC50 (uM); type: functional, organism-based
HepG2 [9] = assay: HepG2 CC50 (uM) Cytotoxicity; type: functional; details: Homo sapiens
Plasmodium berghei [10] = assay: Antimalarial activity: Liver Stage Plasmodium berghei sporozoite Luciferase assay IC50 (uM); type: functional, organism-based

Row | SMILES | Inhibition (Plasmodium falciparum [1]) | CC50 [2] | IC50 (Plasmodium falciparum [3]) | CC20 (HepG2 [4]) | inhibition at 10 µM (HepG2 [5]) | Inhibition (Plasmodium berghei [6]) | IC50 (Plasmodium falciparum [7]) | IC50 (Plasmodium falciparum [8]) | CC50 (HepG2 [9]) | IC50 (Plasmodium berghei [10])
1 | OCc1ccc(-c2cncc(Nc3cccc(Cl)c3)c2)cc1 | 5% | > 25 µM | 30 nM | 20.5 µM | 7% | 57% | 10 nM |  |  | 
2 | CS(=O)(=O)c1cccc(-c2cnc3[nH]cc(-c4ccc(CCC(=O)O)cc4)c3c2)c1 | 38% | > 50 µM | 500 nM | >80 µM | 16% | 47% | 680 nM | 910 nM |  | 
3 | O=C(Nc1cccc(-c2ccc(NCCCN3CCCC3)nc2)c1)c1ccccc1 | 7% | > 50 µM | 850 nM | 17.2 µM | 0% | 25% | 2740 nM | 1660 nM |  | 
4 | CC(C)(C)c1cc(C(=O)N2CCN(c3nccnc3C#N)CC2)n(Cc2ccccc2)n1 | 8% | > 50 µM | 600 nM | 22.9 µM | 0% | 42% | 1000 nM | 1300 nM |  | 
5 | CCC(NC(=O)c1ccccc1NC(=O)c1ccc(C)cc1)C(=O)OC (stereo unspecified) | 29% | > 50 µM | 160 nM |  | 5% | 0% |  |  |  | 
6 | CC(=O)Nc1ccc(NC(=O)c2cc(-c3cc(Cl)ccc3O)n[nH]2)cc1 | 6% | > 50 µM | 350 nM | >80 µM | 7% | 0% | 480 nM | 510 nM |  | 
7 | O=C1COCc2ccc(Br)cc2N1Cc1ccc(C(F)(F)F)cc1 | 2% | > 50 µM | 960 nM | 38.4 µM | 10% | 2% | 3060 nM | 2260 nM |  | 
8 | CC(C)(C)CN1C(=O)C(c2ccccc2)(c2ccccc2)N=C1N | 2% | 6.5 µM | 800 nM | 1.17 µM | 0% | 25% | 1500 nM | > 2000 nM |  | 
9 | Nc1ncc(-c2cn[nH]c2)cc1-c1nc2cc(Cl)cnc2[nH]1 | 0% | > 50 µM | 400 nM | 2.82 µM | 7% | 0% |  |  |  | 
10 | CCCS(=O)(=O)N1CCC(CO)(Cc2ccccc2C(F)(F)F)CC1 | 19% | > 50 µM | 1090 nM | >80 µM | 0% | 43% | 990 nM | 1550 nM |  | 
11 | Cc1ccc(S(=O)(=O)n2cc(-c3ccnc(N)c3)c3cc(Br)cnc32)cc1 | 17% |  | 630 nM | 5.28 µM |  | 99% | 1470 nM | 1300 nM | > 6 µM | > 6 µM
12 | Clc1cccc(C(c2ccc(CN3CCNCC3)cc2)n2ccnc2)c1 (stereo unspecified) | 36% |  | 1630 nM | 15.2 µM |  | 83% | 1530 nM | 1360 nM | > 10 µM | > 10 µM
13 | FC(F)(F)c1cccc(-c2nc3c(NCc4ccncc4)nccc3[nH]2)c1 | 11% |  | 510 nM | 14.6 µM |  | 62% | 780 nM | 1040 nM | > 10 µM | > 10 µM
14 | Nc1nccc2ccc(Oc3ccncc3)cc12 | 43% |  | 230 nM | >80 µM |  | 52% | 740 nM | 420 nM | > 10 µM | > 10 µM
